Test results taken from ChEMBL document CHEMBL3044676, “Effect of Antibiotics on Formation of Aerial Mycelium and Production of Phytotoxins in Streptomyces spp” (2003).
Activity calls are given as the source filed them. No cut-off for these calls is given here.

What was measured:
Streptomyces alboniger [1] = experiment: Antimicrobial activity against Streptomyces alboniger IFO 12738 assessed as inhibition of aerial mycelial growth at 0.4 ug/disk after 5 days by paper disk method; assay type: functional
[2] = tested on: Streptomyces acidiscabies; experiment: Antimicrobial activity against Streptomyces acidiscabies ATCC 4900315 assessed as inhibition of growth at 4 ug/disk after 5 days by paper disk method; assay type: functional
[3] = tested on: Streptomyces acidiscabies; experiment: Antimicrobial activity against Streptomyces acidiscabies ATCC 4900315 assessed as inhibition of aerial mycelial growth at 0.4 ug/disk after 5 days by paper disk method; assay type: functional; details: for zone of inhibition at 0.4 µg/disc: ATCC 4900315, 120 h, read-out: DIZ
[4] = tested on: Streptomyces acidiscabies; experiment: Antimicrobial activity against Streptomyces acidiscabies ATCC 4900315 assessed as inhibition of aerial mycelial growth at 4 ug/disk after 5 days by paper disk method; assay type: functional; details: for zone of inhibition at 4 µg/disc: ATCC 4900315, 120 h, read-out: DIZ
Streptomyces alboniger [5] = experiment: Antimicrobial activity against Streptomyces alboniger IFO 12738 assessed as inhibition of aerial mycelial growth at 0.04 ug/disk after 5 days by paper disk method; assay type: functional, organism-based
[6] = tested on: Streptomyces acidiscabies; experiment: Antimicrobial activity against Streptomyces acidiscabies ATCC 4900315 assessed as inhibition of aerial mycelial growth at 0.04 ug/disk after 5 days by paper disk method; assay type: functional
Streptomyces scabiei [7] = experiment: Antimicrobial activity against Streptomyces scabiei ATCC 4917314 assessed as inhibition of aerial mycelial growth at 0.40 ug/disk after 5 days by paper disk method; assay type: functional; details: for zone of inhibition at 0.4 µg/disc: ATCC 4917314, 120 h, read-out: DIZ
Streptomyces scabiei [8] = experiment: Antimicrobial activity against Streptomyces scabiei ATCC 4917314 assessed as inhibition of aerial mycelial growth at 0.04 ug/disk after 5 days by paper disk method; assay type: functional; details: for zone of inhibition at 0.04 µg/disc: ATCC 4917314, 120 h, read-out: DIZ
Streptomyces scabiei [9] = experiment: Antimicrobial activity against Streptomyces scabiei ATCC 4917314 assessed as inhibition of aerial mycelial growth at 4 ug/disk after 5 days by paper disk method; assay type: functional; details: ATCC 4917314, 120 h, read-out: DIZ
Streptomyces alboniger [10] = experiment: Antimicrobial activity against Streptomyces alboniger IFO 12738 assessed as inhibition of aerial mycelial growth at 4 ug/disk after 5 days by paper disk method; assay type: functional; details: for zone of inhibition at 4 µg/disc: IFO 12738, 120 h, read-out: DIZ
Streptomyces scabiei [11] = experiment: Antimicrobial activity against Streptomyces scabiei ATCC 4917314 assessed as inhibition of growth at 4 ug/disk after 5 days by paper disk method; assay type: functional; details: ATCC 4917314, 120 h, read-out: DIZ
Streptomyces alboniger [12] = experiment: Antimicrobial activity against Streptomyces alboniger IFO 12738 assessed as inhibition of growth at 4 ug/disk after 5 days by paper disk method; assay type: functional; details: IFO 12738, 120 h, read-out: DIZ
Streptomyces scabiei [13] = experiment: Antimicrobial activity against Streptomyces scabiei ATCC 4917314 assessed as inhibition of growth at 0.4 ug/disk after 5 days by paper disk method; assay type: functional; details: ATCC 4917314, 120 h, read-out: DIZ
[14] = ATCC 4900315, 120 h, read-out: DIZ

| SMILES | diameter of the inhibition zone (DIZ) (Streptomyces alboniger [1]) | diameter of the inhibition zone (DIZ) [3] | zone of inhibition at 4 µg/disc [4] [mm] | diameter of the inhibition zone (DIZ) (Streptomyces alboniger [5]) | diameter of the inhibition zone (DIZ) [6] | diameter of the inhibition zone (DIZ) (Streptomyces scabiei [8]) | zone of inhibition at 4 µg/disc (Streptomyces scabiei [9]) [mm] | diameter of the inhibition zone (DIZ) (Streptomyces alboniger [10]) | zone of inhibition at 0.4 µg/disc (Streptomyces scabiei [7]) [mm] | zone of inhibition at 4 µg/disc (Streptomyces alboniger [10]) [mm] | zone of inhibition at 4 µg/disc (Streptomyces alboniger [12]) [mm] | zone of inhibition at 0.04 µg/disc (Streptomyces scabiei [8]) [mm] | other results |
| --- | --- | --- | --- | --- | --- | --- | --- | --- | --- | --- | --- | --- | --- |
| CC1(C)S[C@@H]2[C@H](NC(=O)[C@H](N)c3ccccc3)C(=O)N2[C@H]1C(=O)O [AMPICILLIN] | inactive | inactive | 16 | inactive | inactive | inactive | 16 |  |  |  |  |  | diameter of the inhibition zone (DIZ) [2]: inactive; diameter of the inhibition zone (DIZ) (Streptomyces scabiei [7]): inactive |
| CN(CC[C@H](N)CC(=O)N[C@H]1CC[C@H](n2ccc(N)nc2=O)O[C@@H]1C(=O)O)C(=N)N [BLASTADIN S] | inactive | inactive | 9 | inactive | inactive | inactive | 23 | inactive | 10 |  |  |  |  |
| O=C(N[C@H](CO)[C@H](O)c1ccc([N+](=O)[O-])cc1)C(Cl)Cl [CHLORAMPHENICOL] | inactive | inactive | 10 | inactive | inactive | inactive | 29 |  | 13 | 44 | 16 |  | zone of inhibition at 4 µg/disc (Streptomyces scabiei [11]): 15 mm |
| CO[C@@H]1[C@H](O)C[C@@H](O[C@@H]2C[C@H](Oc3cc4cc5c(c(O)c4c(O)c3C)C(=O)[C@@H](O[C@H]3C[C@@H](O[C@H]4C[C@@H](O[C@H]6C[C@](C)(O)[C@@H](OC(C)=O)[C@H](C)O6)[C@H](O)[C@@H](C)O4)[C@H](O)[C@@H](C)O3)[C@H]([C@H](OC)C(=O)[C@@H](O)[C@@H](C)O)C5)O[C@H](C)[C@@H]2OC(C)=O)O[C@@H]1C [CHROMOMYCIN A3] | inactive |  | 26 | inactive |  | inactive | 11 | inactive |  |  |  |  | zone of inhibition at 0.4 µg/disc [3]: 19 mm; zone of inhibition at 0.04 µg/disc [6, 14]: 13 mm; diameter of the inhibition zone (DIZ) (Streptomyces scabiei [7]): inactive |
| C[C@@H]1O[C@@H]1P(=O)(O)O [FOSFOMYCIN] | inactive | inactive |  | inactive | inactive |  | 17 | inactive | 16 |  |  | 16 | diameter of the inhibition zone (DIZ) [4]: inactive |
| CO[C@@H]1[C@@H](O[C@@H]2O[C@H](C)[C@@H](O[C@H]3C[C@@](C)(O)[C@@H](OC(=O)CC(C)C)[C@H](C)O3)[C@H](N(C)C)[C@H]2O)[C@@H](CC=O)C[C@@H](C)[C@@H](O)/C=C/C=C/C[C@@H](C)OC(=O)C[C@H]1OC(C)=O [JOSAMYCIN] | inactive |  | 17 | inactive | inactive |  | 29 |  | 17 | 15 | 14 | 15 | zone of inhibition at 4 µg/disc [2, 14]: 10 mm; zone of inhibition at 0.4 µg/disc [3]: 13 mm; zone of inhibition at 4 µg/disc (Streptomyces scabiei [11]): 21 mm; zone of inhibition at 0.4 µg/disc (Streptomyces scabiei [13]): 11 mm |
| CCC[C@@H]1C[C@@H](C(=O)N[C@@H]([C@H]2O[C@H](SC)[C@H](O)[C@@H](O)[C@H]2O)[C@@H](C)O)N(C)C1 [LINCOMYCIN] |  | inactive |  |  | inactive |  | 40 |  | 34 | 40 | 12 | 20 | zone of inhibition at 0.4 µg/disc (Streptomyces alboniger [1]; IFO 12738, 120 h, read-out: DIZ): 18 mm; diameter of the inhibition zone (DIZ) [4]: inactive |
